Assay results: patent US20110184029A1, “PYRIDONE DERIVATIVES AS NON-NUCLEOSIDE REVERSE TRANSCRIPTASE INHIBITORS” (KOREA RESEARCH INSTITUTE OF CHEMICAL TECHNOLOGY, priority 2008, published 2011)
pEC50: −log10 of the molar value.

Experiments:
[1] = tested on: HIV-IIIb; assay: Antiviral assay in MT-2 / MT-4 cells infected with HIV-IIIb (CellTiter-Glo readout); assay type: cell-based; conditions: MT4, 120 h, 5 days, MT-2 or MT-4 cells not given
Method: For the antiviral assay utilizing MT-2 cells, 50 μl of 2× test concentration of 5-fold serially diluted compound in culture medium with 10% FBS was added to each well of a 96-well plate (9 concentrations) in triplicate. MT-2 cells were infected with HIV-IIIb at a multiplicity of infection (m.o.i) of 0.01 for 3 hours. Fifty microliters of infected cell suspension in culture medium with 10% FBS (˜1.5×10^4 cells) was then added to each well containing 50 μl of diluted compound. The plates were then incubated at 37° C. for 5 days. For the antiviral assay utilizing MT-4 cells, 20 μl of 2× test concentration of 5-fold serially diluted compound in culture medium with 10% FBS was added to each well of a 384-well plate (7 concentrations) in triplicate. MT-4 cells were next mixed with HIV-IIIb at an m.o.i. of 0.1 and 20 μl of virus/cell mixture (˜2000 cells) was immediately added to each well containing 20 μl of diluted compound. The plates were then incubated at 37° C. for 5 days. After 5 days of incubation, 100 μl of CellTiter-Glo™ Reagent (catalog #G7571, Promega Biosciences, Inc., Madison, Wis.) was added to each well containing MT-2 cells and 40 μl to each well containing MT-4 cells. Cell lysis was carried out by incubation at room temperature for 10 min and chemiluminescence was read.

[2] = Cytotoxicity assessment in uninfected MT-2 / MT-4 cells; assay type: cell-based; conditions: human, MT-2 or MT-4 cells not given
Method: For compound cytotoxicity assessment in MT-2 cells, the protocol was identical to that of the antiviral assay in MT-2 cells, except that uninfected cells and a 3-fold serial dilution of compounds were used. For cytotoxicity assessment in MT-4 cells, the protocol is identical to that of the antiviral assay in MT-4 cells, except that no virus was added. Cytotoxicity is expressed as CC50.

Row | SMILES | pEC50 [1] | melting point | CC50 at 5 days [2]
1 | Cc1[nH]c(=O)c(C(C)C)c(C(=O)c2cc(C#N)cc(C(N)=O)c2)c1CC1CC1 [Example 10, 3-Cyano-5-(5-cyclopropylmethyl-3-isopropyl-6-methyl-2-oxo-1,2-dihydro-pyridine-4-carbonyl)-benzamide] | > 7.00 |  | 
2 | Cc1cc(C#CCO)cc(C(=O)c2c(CC3CC3)c(C)[nH]c(=O)c2C(C)C)c1 [Example 11, 5-(cyclopropylmethyl)-4-(3-(3-hydroxyprop-1-ynyl)-5-methylbenzoyl)-3-isopropyl-6-methylpyridin-2 (1H)-one] | > 7.00 |  | 
3 | Cc1[nH]c(=O)c(C(C)C)c(C(=O)c2cc(C#N)cc(C#CCO)c2)c1CC1CC1 [Example 12, 3-(5-Cyclopropylmethyl-3-isopropyl-6-methyl-2-oxo-1,2-dihydro-pyridine-4-carbonyl)-5-(3-hydroxy-prop-1-ynyl)-benzonitrile] | > 7.00 |  | 
4 | Cc1cc(C#N)cc(C(=O)c2c(CC3CC3)c(CO)[nH]c(=O)c2C(C)C)c1 [Example 13, 3-(5-Cyclopropylmethyl-6-hydroxymethyl-3-isopropyl-2-oxo-1,2-dihydro-pyridine-4-carbonyl)-5-methyl-benzonitrile] | > 7.00 |  | 
5 | CC(C)c1c(C(=O)c2cc(C#N)cc(C#N)c2)c(CC2CC2)c(CO)[nH]c1=O [Example 14, 5-(5-Cyclopropylmethyl-6-hydroxymethyl-3-isopropyl-2-oxo-1,2-dihydro-pyridine-4-carbonyl)-isophthalonitrile] | > 7.00 |  | 
6 | Cc1cc(C#N)cc(C(=O)c2c(CC3CC3)c(CC#N)[nH]c(=O)c2C(C)C)c1 [Example 15, 3-(6-Cyanomethyl-5-cyclopropylmethyl-3-isopropyl-2-oxo-1,2-dihydro-pyridine-4-carbonyl)-5-methyl-benzonitrile] | > 7.00 |  | 

Second part, led by results:

Row | pEC50 [1] | melting point | SMILES | CC50 at 5 days [2]
7 | > 7.00 | 222 to 224 °C | Cc1cc(C#N)cc(C(=O)c2c(CC3CC3)c(C)[nH]c(=O)c2C(C)C)c1 [Example 1, 3-(5-Cyclopropylmethyl-3-isopropyl-6-methyl-2-oxo-1,2-dihydro-pyridine-4-carbonyl)-5-methyl-benzonitrile] | 
8 | > 7.00 | 266 to 267 °C | Cc1[nH]c(=O)c(C(C)C)c(C(=O)c2cc(C#N)cc(C#N)c2)c1CC1CC1 [Example 2, 5-(5-Cyclopropylmethyl-3-isopropyl-6-methyl-2-oxo-1,2-dihydro-pyridine-4-carbonyl)-isophthalonitrile] | 
9 | > 7.00 | 237 to 238 °C | Cc1[nH]c(=O)c(C(C)C)c(C(=O)c2cc(Cl)cc(C#N)c2)c1CC1CC1 [Example 3, 3-Chloro-5-(5-cyclopropylmethyl-3-isopropyl-6-methyl-2-oxo-1,2-dihydro-pyridine-4-carbonyl)-benzonitrile] | 
10 | > 7.00 |  | Cc1cc(C#N)cc(C(=O)c2c(CC3(CO)CC3)c(C)[nH]c(=O)c2C(C)C)c1 [Example 5, 3-[5-(1-Hydroxymethyl-cyclopropylmethyl)-3-isopropyl-6-methyl-2-oxo-1,2-dihydro-pyridine-4-carbonyl]-5-methyl-benzonitrile] | 
11 | > 7.00 |  | Cc1[nH]c(=O)c(C(C)C)c([S+]([O-])c2cc(C#N)cc(C#N)c2)c1CC1CC1 (stereo not shown) [Example 6, 5-(5-Cyclopropylmethyl-3-isopropyl-6-methyl-2-oxo-1,2-dihydro-pyridin-4-sulfinyl)-isophthalonitrile] | > 100 µM
12 | > 7.00 |  | Cc1cc(C#N)cc(Sc2c(CC3CC3)c(C)[nH]c(=O)c2C(C)C)c1 [Example 7, 3-(5-(cyclopropylmethyl)-3-isopropyl-6-methyl-2-oxo-1,2-dihydropyridin-4-ylthio)-5-methylbenzonitrile] | 
13 | > 7.00 |  | Cc1cc(C#N)cc([S+]([O-])c2c(CC3CC3)c(C)[nH]c(=O)c2C(C)C)c1 (stereo not shown) [Example 8, 3-(5-(cyclopropylmethyl)-3-isopropyl-6-methyl-2-oxo-1,2-dihydropyridin-4-ylsulfinyl)-5-methylbenzonitrile] | 
14 | > 7.00 |  | Cc1cc(C#N)cc(S(=O)(=O)c2c(CC3CC3)c(C)[nH]c(=O)c2C(C)C)c1 [Example 9, 3-(5-Cyclopropylmethyl-3-isopropyl-6-methyl-2-oxo-1,2-dihydro-pyridine-4-sulfonyl)-5-methyl-benzonitrile] | > 69 µM
